Data reported in the CheMixHub ionic liquid set.

Assay: xn = mol fraction of the nth substance listed

CCCCCCCCn1cc[n+](C)c1.[Cl-] + CCO + O
298.15 K, 101 kPa
Conditions | viscosity [mPa·s]
x2 = 0.0467, x3 = 0.9348 | 2.514
x2 = 0.0558, x3 = 0.9143 | 3.908
x2 = 0.0679, x3 = 0.8854 | 7.008
x2 = 0.0766, x3 = 0.8576 | 10.5
x2 = 0.0826, x3 = 0.91 | 2.007
x2 = 0.0929, x3 = 0.8165 | 13.64
x2 = 0.0962, x3 = 0.8862 | 2.748
x2 = 0.0984, x3 = 0.1869 | 2330
x2 = 0.1218, x3 = 0.7443 | 18.9
x2 = 0.1329, x3 = 0.8601 | 2.881
x2 = 0.1594, x3 = 0.6721 | 21.9
x2 = 0.1807, x3 = 0.7375 | 7.695
x2 = 0.1867, x3 = 0.7875 | 3.207
x2 = 0.1968, x3 = 0.1665 | 855
x2 = 0.2008, x3 = 0.4721 | 68.1
x2 = 0.2008, x3 = 0.7927 | 2.822
x2 = 0.2235, x3 = 0.6582 | 10.37
x2 = 0.2254, x3 = 0.7596 | 2.603
x2 = 0.2604, x3 = 0.7162 | 3.164
x2 = 0.2624, x3 = 0.3089 | 119.1
x2 = 0.2733, x3 = 0.7208 | 2.591
x2 = 0.2777, x3 = 0.4267 | 41.41
x2 = 0.2833, x3 = 0.1486 | 402
x2 = 0.2958, x3 = 0.669 | 3.56
x2 = 0.3057, x3 = 0.6808 | 2.662
x2 = 0.3069, x3 = 0.6239 | 5.009
x2 = 0.3218, x3 = 0.5748 | 7.072
x2 = 0.3263, x3 = 0.5386 | 9.47
x2 = 0.3335, x3 = 0.6189 | 3.791
x2 = 0.3386, x3 = 0.6405 | 2.729
x2 = 0.3599, x3 = 0.268 | 58.73
x2 = 0.3651, x3 = 0.6297 | 2.282
x2 = 0.366, x3 = 0.5069 | 8.153
x2 = 0.3714, x3 = 0.5658 | 4.285
x2 = 0.3806, x3 = 0.3659 | 24.18
x2 = 0.3954, x3 = 0.5743 | 2.873
x2 = 0.4166, x3 = 0.5418 | 3.353
x2 = 0.4363, x3 = 0.4778 | 4.956
x2 = 0.4432, x3 = 0.2332 | 33.75
x2 = 0.4437, x3 = 0.5387 | 2.553
x2 = 0.4443, x3 = 0.5002 | 3.63
x2 = 0.4617, x3 = 0.4303 | 5.846
x2 = 0.5079, x3 = 0.2907 | 11.59
x2 = 0.532, x3 = 0.3966 | 3.823
x2 = 0.5377, x3 = 0.4533 | 1.472
x2 = 0.544, x3 = 0.4234 | 2.522
x2 = 0.5558, x3 = 0.186 | 16.16
x2 = 0.5841, x3 = 0.3951 | 2.156
x2 = 0.5878, x3 = 0.3295 | 3.918
x2 = 0.6004, x3 = 0.2361 | 7.378
x2 = 0.6077, x3 = 0.3891 | 1.864
x2 = 0.6374, x3 = 0.3073 | 2.912
x2 = 0.6743, x3 = 0.2932 | 2.278
x2 = 0.6985, x3 = 0.0625 | 11.08
x2 = 0.6991, x3 = 0.1777 | 4.71
x2 = 0.7005, x3 = 0.2845 | 1.923
x2 = 0.7599, x3 = 0.1919 | 2.375
x2 = 0.7937, x3 = 0.0428 | 5.553
x2 = 0.7997, x3 = 0.1184 | 2.964
x2 = 0.847, x3 = 0.1454 | 1.508

C[N+](C)(C)CCC[N+]1(C)CCCCC1.N#C[N-]C#N.N#C[N-]C#N + CCO
viscosity [mPa·s], 100 kPa
Conditions | x1 = 0.0999 | x1 = 0.2001 | x1 = 0.3002 | x1 = 0.3999 | x1 = 0.5002 | x1 = 0.6001 | x1 = 0.7003 | x1 = 0.7998 | x1 = 0.8995 | x1 = 1
293.15 K | 6.82 | 19.7 | 47.6 | 115 | 280 | 596 | 1088 | 1716 | 2737 | 4503
303.15 K | 5.39 | 15 | 33 | 73.3 | 164 | 330 | 545 | 830 | 1240 | 1837
313.15 K | 4.38 | 11.6 | 24.1 | 49.6 | 106 | 211 | 310 | 461 | 624 | 860
323.15 K | 3.68 | 9.19 | 18.1 | 35.2 | 70.5 | 132 | 192 | 267 | 360 | 460
333.15 K | 3.18 | 7.55 | 14.1 | 26.2 | 50.7 | 85.9 | 126 | 171 | 219 | 270
